Results published in patent US20220323406A1, “METHODS AND COMPOSITIONS FOR DIFFERENTIATING STEM CELLS” (Massachusetts Institute of Technology, priority 2019, published 2022).

Columns and labels:
[1] = system: ENR+CD organoids (ISC to Paneth cell differentiation); assay: Primary screen: basal (non-stimulated) lysozyme secretion LYZ.NS, 2.5-D 384-well ENR+CD organoid differentiation; format: cell-based, mouse
Text: (§1) High-throughput screening.

ENR+CD organoids = assay: Primary screen: ATP (CellTiter-Glo 3D, CTG) cell number/viability, 2.5-D 384-well ENR+CD organoids;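 further: compounds given at plating and again on day 3 over a 6-day differentiation from ENR+CV stem-cell-enriched precursors, ATP measured on day 6, plate median as control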
[2] = system: ENR+CD organoids (ISC to Paneth cell differentiation); assay: Primary screen: CCh-stimulated lysozyme secretion LYZ.S, 2.5-D 384-well ENR+CD organoid differentiation; format: cell-based, mouse; conditions: primary screen
Text: as §1

[3] = primary screen, standard z score, dose 0.08 uM
[4] = primary screen, standard z score, dose 0.40 uM
[5] = primary screen, standard z score, dose 2.00 uM
[6] = primary screen, standard z score, dose 10.00 uM
[7] = primary screen, 1st dose row of the treatment (0.08 uM by row order; dose not reprinted)
[8] = primary screen, 2nd dose row of the treatment (0.40 uM by row order; dose not reprinted)
[9] = primary screen, 3rd dose row of the treatment (2.00 uM by row order; dose not reprinted)
[10] = primary screen, 4th dose row of the treatment (10.00 uM by row order; dose not reprinted)
[11] = 1st dose row of the treatment (0.08 uM by row order; dose not reprinted)
[12] = 2nd dose row of the treatment (0.40 uM by row order; dose not reprinted)
[13] = 3rd dose row of the treatment (2.00 uM by row order; dose not reprinted)
[14] = 4th dose row of the treatment (10.00 uM by row order; dose not reprinted)
[15] = primary screen, dose 0.08 uM, standard z score
[16] = primary screen, dose 0.40 uM, standard z score
[17] = primary screen, dose 2.00 uM, standard z score
[18] = primary screen, dose 10.00 uM, standard z score
[19] = primary screen; dose 0.08 uM; FC vs plate median
[20] = primary screen; dose 0.40 uM; FC vs plate median
[21] = primary screen; dose 2.00 uM; FC vs plate median
[22] = primary screen; dose 10.00 uM; FC vs plate median

| Structure (SMILES) | Dose.FC.LYZ.NS ([1]; primary screen, dose 0.08 uM) [log2 fold change] | Dose.FC.LYZ.NS ([1]; primary screen, dose 0.40 uM) [log2 fold change] | Dose.FC.LYZ.NS ([1]; primary screen, dose 2.00 uM) [log2 fold change] | Dose.FC.LYZ.NS ([1]; primary screen, dose 10.00 uM) [log2 fold change] | Dose.FC.CTG (ENR+CD organoids; primary screen, dose 0.08 uM) [log2 fold change] | Dose.FC.CTG (ENR+CD organoids; primary screen, dose 0.40 uM) [log2 fold change] | Dose.FC.CTG (ENR+CD organoids; primary screen, dose 2.00 uM) [log2 fold change] | Dose.FC.CTG (ENR+CD organoids; primary screen, dose 10.00 uM) [log2 fold change] | Dose.FC.LYZ.S ([2]; dose 0.08 uM) [log2 fold change] | Dose.FC.LYZ.S ([2]; dose 0.40 uM) [log2 fold change] | Dose.FC.LYZ.S ([2]; dose 2.00 uM) [log2 fold change] | Dose.FC.LYZ.S ([2]; dose 10.00 uM) [log2 fold change] | Z.LYZ.NS (standard z score) ([1]; primary screen, dose 0.08 uM) | Z.LYZ.NS (standard z score) ([1]; primary screen, dose 0.40 uM) | Z.LYZ.NS (standard z score) ([1]; primary screen, dose 2.00 uM) | Z.LYZ.NS (standard z score) ([1]; primary screen, dose 10.00 uM) | Z.CTG (standard z score) (ENR+CD organoids; primary screen, dose 0.08 uM) | Z.CTG (standard z score) (ENR+CD organoids; primary screen, dose 0.40 uM) | Z.CTG (standard z score) (ENR+CD organoids; primary screen, dose 2.00 uM) | Z.CTG (standard z score) (ENR+CD organoids; primary screen, dose 10.00 uM) | also measured |
| --- | --- | --- | --- | --- | --- | --- | --- | --- | --- | --- | --- | --- | --- | --- | --- | --- | --- | --- | --- | --- | --- |
| CCn1c2ccccc2c2cc(Nc3ccnc(NCCCN4CCOCC4)n3)ccc21 [EHop-016] | 0.177 | 0.035 | 0.029 | −0.203 | 0.081 | 0.062 | 0.088 | −0.757 | 0.091 | 0.012 | −0.011 | −0.299 |  |  |  |  |  |  |  |  | Z.LYZ.NS [1, 3]: 1.537; Z.LYZ.NS [1, 4]: 0.302; Z.LYZ.NS [1, 5]: 0.252; Z.LYZ.NS [1, 6]: −1.769; Z.CTG (ENR+CD organoids; [3]): 0.193; Z.CTG (ENR+CD organoids; [4]): 0.147; Z.CTG (ENR+CD organoids; [5]): 0.211; Z.CTG (ENR+CD organoids; [6]): −1.808 |
| Cl.Cl.O=S(=O)(NCCNC/C=C/c1ccc(Br)cc1)c1cccc2cnccc12 [H 89 2HCl] |  |  |  |  |  |  |  |  |  |  |  |  | 1.223 | 0.695 | 0.747 | 1.151 | 0.836 | 0.950 | 1.005 | 0.919 | Dose.FC.LYZ.NS (log2 fold change) ([1]; primary screen, dose 0.08 uM): 0.140; Dose.FC.LYZ.NS (log2 fold change) ([1]; primary screen, dose 0.40 uM): 0.080; Dose.FC.LYZ.NS (log2 fold change) ([1]; primary screen, dose 2.00 uM): 0.086; Dose.FC.LYZ.NS (log2 fold change) ([1]; primary screen, dose 10.00 uM): 0.132; Dose.FC.CTG (log2 fold change) (ENR+CD organoids; primary screen, dose 0.08 uM): 0.350; Dose.FC.CTG (log2 fold change) (ENR+CD organoids; primary screen, dose 0.40 uM): 0.398; Dose.FC.CTG (log2 fold change) (ENR+CD organoids; primary screen, dose 2.00 uM): 0.421; Dose.FC.CTG (log2 fold change) (ENR+CD organoids; primary screen, dose 10.00 uM): 0.385; Dose.FC.LYZ.S (log2 fold change) ([2]; dose 0.08 uM): 0.118; Dose.FC.LYZ.S (log2 fold change) ([2]; dose 0.40 uM): 0.148; Dose.FC.LYZ.S (log2 fold change) ([2]; dose 2.00 uM): 0.087; Dose.FC.LYZ.S (log2 fold change) ([2]; dose 10.00 uM): 0.000 |
| Cc1ccc(-c2cc(C(F)(F)F)nn2-c2ccc(S(N)(=O)=O)cc2)cc1 [Celecoxib] | −0.041 | −0.053 | −0.084 | −0.099 | −0.034 | −0.299 | −0.118 | −0.128 | −0.067 | −0.068 | −0.097 | −0.133 |  |  |  |  |  |  |  |  | Z.LYZ.NS [1, 3]: −0.359; Z.LYZ.NS [1, 4]: −0.463; Z.LYZ.NS [1, 5]: −0.734; Z.LYZ.NS [1, 6]: −0.865 |
| COc1cc2ncnc(Nc3ccc(Cl)cc3F)c2cc1OC [ZM 306416] | 0.105 | −0.223 | −0.291 | −0.275 | −0.080 | −0.483 | −1.312 | −1.490 | 0.006 | −0.288 | −0.403 | −0.431 | 0.912 | −1.942 | −2.531 | −2.395 | −0.190 | −1.155 | −3.135 | −3.559 |  |
| O=C(O)c1ccc(N2C(=O)/C(=C\c3ccc(-c4ccc([N+](=O)[O-])cc4)o3)C=C2c2ccccc2)cc1 [4E1RCat] | 0.100 | −0.018 | 0.151 | 0.007 | 0.246 | 0.362 | 0.006 | −0.011 | 0.107 | 0.038 | 0.049 | 0.082 | 0.874 | −0.154 | 1.316 | 0.062 | 0.587 | 0.864 | 0.015 | −0.026 | SSMD.LYZ.NS_Rep (strictly standardized mean difference) [1, 7]: 0.883; SSMD.LYZ.NS_Rep (strictly standardized mean difference) [1, 8]: −0.121; SSMD.LYZ.NS_Rep (strictly standardized mean difference) [1, 9]: 0.437; SSMD.LYZ.NS_Rep (strictly standardized mean difference) [1, 10]: 0.053; SSMD.CTG.Rep (strictly standardized mean difference) (ENR+CD organoids; [7]): 0.790; SSMD.CTG.Rep (strictly standardized mean difference) (ENR+CD organoids; [8]): 0.559; SSMD.CTG.Rep (strictly standardized mean difference) (ENR+CD organoids; [9]): 0.022; SSMD.CTG.Rep (strictly standardized mean difference) (ENR+CD organoids; [10]): −0.026; SSMD.LYZ.S_Rep (strictly standardized mean difference) [2, 11]: 0.712; Z.LYZ.S (standard z score) [2, 11]: 0.690; SSMD.LYZ.S_Rep (strictly standardized mean difference) [2, 12]: 0.185; Z.LYZ.S (standard z score) [2, 12]: 0.247; SSMD.LYZ.S_Rep (strictly standardized mean difference) [2, 13]: 0.311; Z.LYZ.S (standard z score) [2, 13]: 0.316; SSMD.LYZ.S_Rep (strictly standardized mean difference) [2, 14]: 0.321; Z.LYZ.S (standard z score) [2, 14]: 0.530 |
| CC[C@H](NC(=O)[C@H](C)NC)C(=O)N1C[C@@H](O)C[C@H]1Cc1c(-c2[nH]c3cc(F)ccc3c2C[C@@H]2C[C@H](O)CN2C(=O)[C@H](CC)NC(=O)[C@H](C)NC)[nH]c2cc(F)ccc12 [Birinapant] | 0.032 | −0.012 | 0.036 | −0.029 | −0.257 | 0.095 | 0.227 | 0.123 | 0.075 | 0.103 | 0.011 | −0.080 | 0.281 | −0.102 | 0.317 | −0.256 |  |  |  |  |  |
| OCCn1cc(-c2cnc3nnn(Cc4ccc5ncccc5c4)c3n2)cn1 [PF-04217903] |  |  |  |  |  |  |  |  |  |  |  |  |  |  |  |  |  |  |  |  | Z.LYZ.NS [1, 15]: 0.742; Z.LYZ.NS [1, 16]: 1.404; Z.LYZ.NS [1, 17]: 1.060; Z.LYZ.NS [1, 18]: 0.617; Dose.FC.LYZ.NS [1, 19]: 0.085 log2 fold change; Dose.FC.LYZ.NS [1, 20]: 0.161 log2 fold change; Dose.FC.LYZ.NS [1, 21]: 0.122 log2 fold change; Dose.FC.LYZ.NS [1, 22]: 0.071 log2 fold change; Z.CTG (ENR+CD organoids; [15]): 0.326; Z.CTG (ENR+CD organoids; [16]): 0.616; Z.CTG (ENR+CD organoids; [17]): −0.122; Z.CTG (ENR+CD organoids; [18]): 0.276; Dose.FC.CTG (ENR+CD organoids; [19]): 0.136 log2 fold change; Dose.FC.CTG (ENR+CD organoids; [20]): 0.258 log2 fold change; Dose.FC.CTG (ENR+CD organoids; [21]): −0.051 log2 fold change; Dose.FC.CTG (ENR+CD organoids; [22]): 0.116 log2 fold change; Dose.FC.LYZ.S ([2]; dose 0.08 uM, FC vs plate median): 0.110 log2 fold change; Dose.FC.LYZ.S ([2]; dose 0.40 uM, FC vs plate median): 0.265 log2 fold change; Dose.FC.LYZ.S ([2]; dose 2.00 uM, FC vs plate median): 0.049 log2 fold change; Dose.FC.LYZ.S ([2]; dose 10.00 uM, FC vs plate median): 0.127 log2 fold change |
